Measurements taken from paper PMC8121762, “Peptidomics of enteroendocrine cells and characterisation of potential effects of a novel preprogastrin derived-peptide on glucose tolerance in lean mice” (Peptides, 2021).
Where a SMILES comes first, the peptide text is derived from it. [ ]: non-standard residue; d: D form. pGlu = O=C1CC[C@@H](C(=O)O)N1

Assays:
lean mice = assay: 1st osmotic pump study: 28-day infusion, body weight, food intake, weekly IP GTT; type: in vivo, mouse; conditions: n = 5/group
Description: (§1) Three studies were performed to assess the in vivo efficacy of the ChgA 435−462a and Gast p59−79 (see Figure legends for specifics of each study). Peptides were administered by osmotic pumps implanted subcutaneously under isoflurane anaesthesia. Food intake was assessed using BioDaq (Research Diets) automated food intake cages. Intraperitoneal (IP) glucose tolerance tests (GTT) were performed by administering a 2 g/kg challenge of glucose and measuring blood glucose levels from the tail vein whereas oral GTT (OGTT) were performed using 1 g/kg glucose challenge. Insulin tolerance tests (ITT) were performed by administering a 0.75 U/kg dose of insulin IP to the mice and assessing blood glucose levels at 15, 30, 45, 60, 90 and 120 min post-insulin challenge.
Fig. 7 In vivo characterisation of novel peptides. (A-C) PK data of ChgA 435-462a, Gast p59-79, Sst 25-36. (D-G) Data from 1st osmotic pump study where n = 5/group. […] Body weights (E) and food intake (D) were measured throughout the study. Week 0 and day -7 represent baseline data prior to treatment onset. Glucose tolerance was assessed every 7 days after surgery via an IP GTT using a 2 g/kg glucose challenge. […] Statistical analysis performed using Kruskal-Wallis test with post-hoc Dunn tests. […] Mice singly housed and infused with either Gast p59-79 or vehicle for 7 days. […] Mice singly housed and infused with either Gast p59-79 or vehicle for 7 days. 2 g/kg IP GTT performed on day 7 (J, K) and 1 g/kg OGTT performed on day 14 (L, M). 0.75 U/kg ITT performed on day 21 (N, O). Body weights vs AUC during ITT on day 21 (P). Error bars represent SD. *P < 0.05, **p < 0.01, ***p < 0.005.

mice = assay: Osmotic pump study 2: 7-day infusion, IP GTT; type: in vivo, mouse; conditions: osmotic pump 7 days, 2 g/kg IP GTT on day 7, n = 8/group, vs vehicle, T test
Description: as §1
Fig. 7 In vivo characterisation of novel peptides. (A-C) PK data of ChgA 435-462a, Gast p59-79, Sst 25-36. (D-G) Data from 1st osmotic pump study where n = 5/group. […] Body weights (E) and food intake (D) were measured throughout the study. Week 0 and day -7 represent baseline data prior to treatment onset. Glucose tolerance was assessed every 7 days after surgery via an IP GTT using a 2 g/kg glucose challenge. Results from IP GTT on day 28 shown in (F, G). Statistical analysis performed using Kruskal-Wallis test with post-hoc Dunn tests. (H, I) Results from osmotic pump study 2 where n = 8/group. […]

primary mouse islets = assay: Islet secretion studies; type: cell-based; conditions: 100 nM peptide, 1 or 16.7 mM glucose, 45 min at 37 °C, LC–MS/MS, n = 9 per group, Mann-Whitney U test
Description: Mice were culled by cervical dislocation and the pancreas inflated by […] injection of a 0.75 mg/mL collagenase V (Sigma-Aldrich) solution in HBSS before removal of the pancreas. The pancreas was incubated at 37 °C for 12 min to liberate islets. The digested tissue was washed in HBSS with 0.1 % BSA before islets were hand-picked under a light microscope. Islets were rested for 1 h by incubating at 37 °C in Krebs’s ringer buffer (KRB, 129 mM NaCl, 2 mM NaHCO3, 4.8 mM KCl, 1.2 mM KH2PO4, 2.5 mM CaCl2, 1.2 mM MgSO4, 10 mM HEPES and adjusted to pH 7.4 with 1 M NaOH.) with 0.1 % BSA and 5.5 mM glucose. Ten size matched islets were then transferred to a 2 mL protein LoBind Eppendorf tubes for 45 min at 37 °C with KRB + 0.001% BSA + one of the following: 1 mM glucose, 16.7 mM glucose, 1 mM glucose + 100 nM Gast p59−79 or 16.7 mM glucose + 100 nM Gast p59−79. At the end of the incubation the supernatant was removed and snap frozen. On the day of analysis all supernatants were defrosted, acidified with 30 μL of 1% FA (aq) (v/v) and extracted with SPE.
Peptides were quantified on as in section 2.8.3. Table 2 details the peptides quantified as well as their product ions, precursor ions, collision energies and dwell times.
Fig. 9 Effect of Gast p59-79 on glucagon (A), insulin-1 (B) and SST-14 (C) secretion from isolated mouse islets. Data represents n = 9 per group. Statistical analysis was performed using a Mann-Whitney U test. Data expressed as peak area normalised to islet number.

## CC[C@H](C)[C@H](NC(=O)[C@H](Cc1ccccc1)NC(=O)[C@H](Cc1c[nH]cn1)NC(=O)[C@H](CCC(N)=O)NC(=O)[C@@H]1CCCN1C(=O)CNC(=O)[C@H](CCC(N)=O)NC(=O)[C@@H]1CCCN1C(=O)CNC(=O)[C@H](CC(C)C)NC(=O)[C@@H]1CCC(=O)N1)C(=O)N[C@@H](C)C(=O)N[C@@H](CC(=O)O)C(=O)N[C@@H](CC(C)C)C(=O)N[C@@H](CO)C(=O)N[C@@H](CCCCN)C(=O)N[C@@H](CCCCN)C(=O)N[C@@H](CCC(N)=O)C(=O)N[C@@H](CCCNC(=N)N)C(=O)N1CCC[C@H]1C(=O)N[C@@H](CCCNC(=N)N)C(=O)O [Gast p59−79] ([pGlu]LGPQGPQHFIADLSKKQRPR-OH; C-terminus assumed)
Lean mice; 6-8 week old male mice, BioDAQ cages, osmotic pump 28 days, ChgA 435-462a 0.3, Gast p59-79 0.8, exenatide 0.03 mg/kg/day, vs PBS
  food intake compared with controls: No significant differences
Lean mice; 6-8 week old male mice, osmotic pump 28 days, ChgA 435-462a 0.3, Gast p59-79 0.8, exenatide 0.03 mg/kg/day, vs PBS
  body weight compared with controls: No significant differences
Lean mice; lean male mice, Gast p59-79 0.8 mg/kg/day, IP GTT 2 g/kg, Kruskal-Wallis with Dunn tests
  IP GTT AUC analyses: did not reach significance
Lean mice; lean male mice, osmotic pump 28 days, IP GTT 2 g/kg glucose every 7 days, ChgA 435-462a 0.3, Gast p59-79 0.8, exenatide 0.03 mg/kg/day, vs PBS
  glucose tolerance in IP GTT (blood glucose): Small but significant improvements in individual time point glucose levels
mice
  glucose tolerance in IP GTT, second mouse cohort: modestly improves glucose tolerance
Primary mouse islets
  SST-14 secretion from isolated islets: No significant effect
  glucagon secretion from isolated islets: No significant effect
  insulin-1 secretion from isolated islets: No significant effect
